In PubChem BioAssay AID342 (DTP/NCI, 2004):
“And” between values parts separate entries of the source, which are not always exact repeats. Identical values can stand only once.

Test system: Swiss mice, Sarcoma 180 sc, mean tumor weight T/C
Assay: NCI In Vivo Anticancer Drug Screen. Data for tumor model Sarcoma 180 (subcutaneous) in Swiss mice
Details: endpoint: mean tumor weight, higher = larger tumour
Procedure, shortened: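 Readout is the ratio of treated-group measurement to vehicle-control measurement (T/C), based on survival or tumor size in mice carrying transplanted tumors.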

[1] = dose: 20.0 mg/kg/injection, schedule: Q01DX007 (ip), vehicle: carboxymethylcellulose (CMC)
[2] = dose: 100.0 mg/kg/injection, schedule: Q01DX007 (ip), vehicle: carboxymethylcellulose (CMC)

C[C@H]1CC[C@@H]2[C@@H](C)[C@H]3[C@H](C[C@H]4[C@@H]5CC=C6C[C@@H](O)CC[C@]6(C)[C@H]5C[C@H](O)[C@]34C)N2C1 was tested, and the T/C (dose: 10.0 mg/kg/injection, schedule: Q01DX007 (sc), vehicle: steriod suspending solution) was 73 % of control, the T/C (dose: 50.0 mg/kg/injection, schedule: Q01DX007 (sc), vehicle: steriod suspending solution) was 44 % of control and the T/C (dose: 100.0 mg/kg/injection, schedule: Q01DX007 (sc), vehicle: steriod suspending solution) was 62 % of control.
CC=C(/C(=C/C)c1ccc(O)cc1)c1ccc(O)cc1 was tested, and the T/C (dose: 15.0 mg/kg/injection, schedule: Q01DX007 (ip), vehicle: carboxymethylcellulose (CMC)) was 52 % of control, the T/C [1] was 42 % of control and the T/C (dose: 27.5 mg/kg/injection, schedule: Q#A X014 (ip), vehicle: carboxymethylcellulose (CMC)) was 40 % of control and 54 % of control. For the same molecule, the T/C (dose: 30.0 mg/kg/injection, schedule: Q01DX007 (ip), vehicle: carboxymethylcellulose (CMC)) was 48 % of control, the T/C (dose: 44.0 mg/kg/injection, schedule: Q01DX007 (ip), vehicle: carboxymethylcellulose (CMC)) was 31 % of control and 40 % of control and the T/C (dose: 66.0 mg/kg/injection, schedule: Q01DX007 (ip), vehicle: carboxymethylcellulose (CMC)) was 35 % of control. For the same molecule, the T/C (dose: 80.0 mg/kg/injection, schedule: Q01DX007 (sc), vehicle: carboxymethylcellulose (CMC)) was 58 % of control, the T/C (dose: 80.0 mg/kg/injection, schedule: Q01DX007 (sc), vehicle: steriod suspending solution) was 14 % of control and the T/C (dose: 94.0 mg/kg/injection, schedule: Q#A X014 (ip), vehicle: carboxymethylcellulose (CMC)) was 50 % of control and 69 % of control. For the same molecule, the T/C [2] was 52 % of control, the T/C (dose: 124.0 mg/kg/injection, schedule: Q01DX007 (ip), vehicle: carboxymethylcellulose (CMC)) was 104 % of control and the T/C (dose: 150.0 mg/kg/injection, schedule: Q01DX007 (ip), vehicle: carboxymethylcellulose (CMC)) was 39 % of control. The T/C (dose: 160.0 mg/kg/injection, schedule: Q01DX007 (sc), vehicle: carboxymethylcellulose (CMC)) was 52 % of control, the T/C (dose: 160.0 mg/kg/injection, schedule: Q01DX007 (sc), vehicle: steriod suspending solution) was 23 % of control and the T/C (dose: 188.0 mg/kg/injection, schedule: Q01DX007 (ip), vehicle: carboxymethylcellulose (CMC)) was 84 % of control. The T/C (dose: 225.0 mg/kg/injection, schedule: Q01DX007 (ip), vehicle: carboxymethylcellulose (CMC)) was 28 % of control and 31 % of control, the T/C (dose: 277.0 mg/kg/injection, schedule: Q01DX007 (ip), vehicle: carboxymethylcellulose (CMC)) was 71 % of control and the T/C (dose: 281.0 mg/kg/injection, schedule: Q01DX007 (ip), vehicle: carboxymethylcellulose (CMC)) was 63 % of control. For the same molecule, the T/C (dose: 320.0 mg/kg/injection, schedule: Q01DX007 (sc), vehicle: carboxymethylcellulose (CMC)) was 30 % of control, the T/C (dose: 320.0 mg/kg/injection, schedule: Q01DX007 (sc), vehicle: steriod suspending solution) was 23 % of control and the T/C (dose: 333.0 mg/kg/injection, schedule: Q01DX007 (ip), vehicle: carboxymethylcellulose (CMC)) was 29 % of control. The T/C (dose: 422.0 mg/kg/injection, schedule: Q01DX007 (ip), vehicle: carboxymethylcellulose (CMC)) was 58 % of control and 65 % of control, the T/C (dose: 500.0 mg/kg/injection, schedule: Q01DX007 (ip), vehicle: carboxymethylcellulose (CMC)) was 24 % of control and 38 % of control and the T/C (dose: 630.0 mg/kg/injection, schedule: Q01DX007 (ip), vehicle: carboxymethylcellulose (CMC)) was 63 % of control. The T/C (dose: 640.0 mg/kg/injection, schedule: Q01DX007 (sc), vehicle: carboxymethylcellulose (CMC)) was 47 % of control, the T/C (dose: 640.0 mg/kg/injection, schedule: Q01DX007 (sc), vehicle: steriod suspending solution) was 17 % of control and the T/C (dose: 750.0 mg/kg/injection, schedule: Q01DX007 (ip), vehicle: carboxymethylcellulose (CMC)) was 35 % of control. For the same molecule, the T/C (dose: 945.0 mg/kg/injection, schedule: Q01DX007 (ip), vehicle: carboxymethylcellulose (CMC)) was 44 % of control.
CCN(CC)P(=O)(N1CC1)N1CC1 was tested, and the T/C (dose: 1.0 mg/kg/injection, schedule: Q#A X014 (ip), vehicle: methylcellulose (MC)) was 64 % of control, the T/C (dose: 1.0 mg/kg/injection, schedule: Q#A X014 (ip), vehicle: saline) was 90 % of control and 92 % of control and the T/C (dose: 1.5 mg/kg/injection, schedule: Q#A X014 (ip), vehicle: methylcellulose (MC)) was 60 % of control. The T/C (dose: 2.0 mg/kg/injection, schedule: Q#A X014 (ip), vehicle: methylcellulose (MC)) was 82 % of control, the T/C (dose: 3.0 mg/kg/injection, schedule: Q#A X014 (ip), vehicle: saline) was 19 % of control and 38 % of control and the T/C (dose: 4.0 mg/kg/injection, schedule: Q01DX007 (ip), vehicle: saline) was 48 % of control.
With NC1=CC(=O)c2ccccc2C1=O the T/C (dose: 31.0 mg/kg/injection, schedule: Q01DX007 (ip), vehicle: other) was 73 % of control and the T/C (dose: 62.0 mg/kg/injection, schedule: Q01DX007 (ip), vehicle: other) was 83 % of control.
In the case of CCCCCCCCCCCCCC1=C(O)C(=O)C(CC2=C(O)C(=O)C(CCCCCCCCCCCCC)=C(O)C2=O)=C(O)C1=O, the T/C (dose: 50.0 mg/kg/injection, schedule: Q01DX007 (ip), vehicle: carboxymethylcellulose (CMC)) is reported as 66 % of control and 80 % of control, the T/C [2] is reported as 73 % of control and the T/C (dose: 200.0 mg/kg/injection, schedule: Q01DX007 (ip), vehicle: carboxymethylcellulose (CMC)) is reported as 101 % of control.
Cn1cc(F)c(=O)[nH]c1=O was tested, and the T/C (dose: 10.0 mg/kg/injection, schedule: Q01DX007 (ip), vehicle: carboxymethylcellulose (CMC)) was 99 % of control and 112 % of control, the T/C [1] was 88 % of control and 94 % of control and the T/C (dose: 80.0 mg/kg/injection, schedule: Q01DX007 (ip), vehicle: carboxymethylcellulose (CMC)) was 95 % of control.
In the case of CC(=O)NC(CCC(=O)C=[N+]=N)C(=O)O (stereo not given), the T/C (dose: 0.03 mg/kg/injection, schedule: Q01DX007 (ip), vehicle: water) is reported as 62 % of control and 80 % of control, the T/C (dose: 0.05 mg/kg/injection, schedule: Q01DX007 (ip), vehicle: water) is reported as 58 % of control and 63 % of control and the T/C (dose: 0.1 mg/kg/injection, schedule: Q01DX007 (ip), vehicle: water) is reported as 13 % of control and 26 % of control. For the same molecule, the T/C (dose: 0.2 mg/kg/injection, schedule: Q01DX007 (ip), vehicle: water) was 1 % of control.
For COc1cccc(/C=N\NC(=O)C(C)SC(C)C(=O)N/N=C/c2cccc(OC)c2)c1 (stereo not given), the T/C (dose: 25.0 mg/kg/injection, schedule: Q01DX007 (ip), vehicle: carboxymethylcellulose (CMC)) was 68 % of control, the T/C (dose: 38.0 mg/kg/injection, schedule: Q01DX007 (ip), vehicle: carboxymethylcellulose (CMC)) was 62 % of control and the T/C (dose: 42.0 mg/kg/injection, schedule: Q#A X014 (ip), vehicle: carboxymethylcellulose (CMC)) was 78 % of control. The T/C (dose: 53.0 mg/kg/injection, schedule: Q01DX007 (ip), vehicle: methylcellulose (MC)) was 77 % of control, the T/C (dose: 56.0 mg/kg/injection, schedule: Q01DX007 (ip), vehicle: carboxymethylcellulose (CMC)) was 35 % of control and the T/C (dose: 63.0 mg/kg/injection, schedule: Q#A X014 (ip), vehicle: carboxymethylcellulose (CMC)) was 79 % of control. The T/C (dose: 80.0 mg/kg/injection, schedule: Q01DX007 (ip), vehicle: methylcellulose (MC)) was 63 % of control, the T/C (dose: 95.0 mg/kg/injection, schedule: Q#A X014 (ip), vehicle: carboxymethylcellulose (CMC)) was 65 % of control and the T/C (dose: 120.0 mg/kg/injection, schedule: Q01DX007 (ip), vehicle: methylcellulose (MC)) was 47 % of control. The T/C (dose: 142.5 mg/kg/injection, schedule: Q#A X014 (ip), vehicle: carboxymethylcellulose (CMC)) was 61 % of control, the T/C (dose: 180.0 mg/kg/injection, schedule: Q01DX007 (ip), vehicle: methylcellulose (MC)) was 59 % of control and the T/C (dose: 270.0 mg/kg/injection, schedule: Q01DX007 (ip), vehicle: methylcellulose (MC)) was 58 % of control. The T/C (dose: 300.0 mg/kg/injection, schedule: Q01DX007 (ip), vehicle: carboxymethylcellulose (CMC)) was 64 % of control and the T/C (dose: 400.0 mg/kg/injection, schedule: Q01DX007 (ip), vehicle: carboxymethylcellulose (CMC)) was 59 % of control.
For N#Cc1cn(C2OC(CO)C(O)C2O)c2ncnc(N)c12 (stereo not given), the T/C (dose: 0.05 mg/kg/injection, schedule: Q#A X014 (ip), vehicle: carboxymethylcellulose (CMC)) was 79 % of control.
For CCN(CC)c1ccc2cc3ccc(=[N+](CC)CC)cc-3oc2c1, the T/C (dose: 0.42 mg/kg/injection, schedule: Q#A X014 (ip), vehicle: carboxymethylcellulose (CMC)) was 84 % of control, the T/C (dose: 0.83 mg/kg/injection, schedule: Q#A X014 (ip), vehicle: carboxymethylcellulose (CMC)) was 106 % of control and the T/C (dose: 1.67 mg/kg/injection, schedule: Q#A X014 (ip), vehicle: carboxymethylcellulose (CMC)) was 82 % of control. The T/C (dose: 3.35 mg/kg/injection, schedule: Q#A X014 (ip), vehicle: carboxymethylcellulose (CMC)) was 73 % of control, the T/C (dose: 6.25 mg/kg/injection, schedule: Q01DX007 (ip), vehicle: other) was 111 % of control and the T/C (dose: 12.5 mg/kg/injection, schedule: Q01DX007 (ip), vehicle: other) was 98 % of control.
For CCCCNc1ncnc2c1cnn2C, the T/C (dose: 4.0 mg/kg/injection, schedule: Q01DX007 (ip), vehicle: carboxymethylcellulose (CMC)) was 124 % of control, the T/C (dose: 8.0 mg/kg/injection, schedule: Q01DX007 (ip), vehicle: carboxymethylcellulose (CMC)) was 107 % of control and 121 % of control and the T/C (dose: 31.0 mg/kg/injection, schedule: Q01DX007 (ip), vehicle: carboxymethylcellulose (CMC)) was 92 % of control. For the same molecule, the T/C (dose: 32.0 mg/kg/injection, schedule: Q01DX007 (ip), vehicle: carboxymethylcellulose (CMC)) was 77 % of control and the T/C (dose: 62.0 mg/kg/injection, schedule: Q01DX007 (ip), vehicle: carboxymethylcellulose (CMC)) was 112 % of control.
